Where two headings read alike, the source gives them in different places.
How the values were obtained:
[1] = system: B6 mice; assay: Tail-flick test; assay type: in vivo; details: for AUC of inhibition of the tail-flick response: 0-180 min
Description: Male wild-type B6 mice (25-30 g) were kept in a temperature-controlled animal room with a 12-h light/dark cycle. The protocol was approved by the Institutional Animal Care and Use Committee of the National Health Research Institutes, Taiwan. Animal experiments were carried out in accordance with the Policies on the Use of Animals in Neuroscience Research and the ethical guidelines for investigations of experimental pain in conscious animals, International Association for the Study of Pain.
Tail-Flick Analgesia Meter (Columbia Instruments, Trussville, Ala., USA) was used to measure the tail-flick latencies of mice. The cut-off time for each measurement was 10 s to avoid tissue damage. Basal latencies (in seconds) were recorded before treatment and test latencies (also in seconds) were recorded at 30, 60, 90, 120, and 180 minutes after an intravenous injection of compounds. Time-response curves from compounds at various concentrations were obtained for anti-nociceptive effects occurring between 0 and 180 minutes. The AUC values corresponding to the various concentrations were also calculated. The anti-nociceptive effects were quantitatively calculated by substracting the basal latency from the test latency. An ED50 value was determined by an up-and-down method reported in Crocker et al., Pharmacol Biochem Behav, 1984, 21, 133-136.
To investigate whether AAMs could change the innate character of MOR to be activated by naloxone in vivo, tail-flick tests after acute treatment were performed. […] Unexpectedly, in mice injected only with the vehicle not containing naloxone, no anti-nociception effect was observed even with the highest dose of Compound 1 at 100 mg/kg. These in vivo results again indicate that Compound 1 served as an AAM of the MOR.

[2] = biological target: T1, hMOR (Homo sapiens, UniProt P35372); assay: cell-based; assay type: cell-based; details: for AUC: AUC of [Ca2+]i fluorescence
T1 construct: host or cells: CHO-K1
T1 sequence (P35372 whole entry): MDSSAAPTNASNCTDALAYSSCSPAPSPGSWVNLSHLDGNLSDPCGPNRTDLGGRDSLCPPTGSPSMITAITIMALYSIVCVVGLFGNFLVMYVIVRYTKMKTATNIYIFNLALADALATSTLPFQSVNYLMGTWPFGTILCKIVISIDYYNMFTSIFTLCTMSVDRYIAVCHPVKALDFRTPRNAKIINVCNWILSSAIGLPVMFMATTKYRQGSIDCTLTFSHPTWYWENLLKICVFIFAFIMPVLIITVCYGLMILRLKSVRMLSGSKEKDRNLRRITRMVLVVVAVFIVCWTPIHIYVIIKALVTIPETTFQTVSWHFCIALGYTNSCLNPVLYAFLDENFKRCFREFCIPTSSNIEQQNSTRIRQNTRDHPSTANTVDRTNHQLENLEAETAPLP
Description: Chinese hamster ovary (CHO)-K1 cells expressing hMOR and Gα15 (CHO-K1/MOR/Gα15) were cultured in F12 medium (GIBCO) supplemented with 10 μg/mL Hygromycin B (Invivogen), 20 μg/mL Zeocin (Invivogen) and P/S/F (100 units/mL penicillin, 100 μg/mL streptomycin, 10% fetal bovine serum). The cultures were incubated at 37° C. in a humidified 5% CO2 incubator.
One day prior to running the assay, CORNING® black 96-well assay plates having a clear flat bottom were coated with a 0.1 mg/mL Poly-L-Lysine solution. CHO-K1/MOR/Gα15 cells were suspended in F12 medium and plated at a density of about 8×10^4 cells/well in 200 μL medium. Cells were incubated under a humidified atmosphere of 10% CO2 at 37° C. overnight to reach an 80-90% confluent cell monolayer before the assay. On the day of the assay, 150 μL medium was removed from each well of the plates. To each well were added FLIPR® calcium assay reagents (Molecular Devices Corporation, Sunnyvale, Calif., USA; 50 μL) dissolved in 1× assay buffer (HBSS: KCl 5 mM, KH2PO4 0.3 mM, NaCl 138 mM, NaHCO3 4 mM, Na2HPO4 0.3 mM, d-glucose 5.6 mM, with additional 20 mM HEPES and […], pH 7.4) and 2.5 mM probenecid. After incubation at 37° C. for 1 hour, a test compound, alone or together with naloxone (a MOR antagonist), was also added to each well. Using a FlexStationlll instrument (Molecular Devices Corp.), increments of the [Ca^2+]i fluorescence after robotic injection of the cell suspension were monitored at 1.52 s intervals using the excitation wavelength of 485 nm and the emission wavelength of 525 nm. The [Ca^2+]i fluorescence was measured up to 90 s after the injection. The fluorescence intensity from 6 to 12 wells of cells were averaged and the relative amount of [Ca^2+]i release was determined by integrating the AUC of the [Ca^2+]i fluorescence averages.
A CHO-K1 cell line expressing MOR and Gα15 (GenScript) was used to set up a sensitive high-throughput screen (HTS) system. […] The HTS was performed in the absence or presence of naloxone (an opioid antagonist; 20 nM), to identify AAMs.

[3] = combined with naloxone, CHO-K1/MOR/Gα15 cells

CCc1ccccc1Nc1nc(-c2sc(C)nc2C)cs1 [Compound 1, N-(2-Ethylphenyl)-2′,4′-dimethyl-4,5′-bi-1,3-thiazol-2-amine]
anti-nociceptive effect ([1]; Compound 1 alone at 25, 50, or 100 mg/kg (i.v.), B6 mice): did not produce any anti-nociceptive effect
AUC of inhibition of the tail-flick response ([1]; Compound 1 at 25 mg/kg (i.v.) with naloxone at 10 mg/kg): 114.8±26 min×s
AUC of inhibition of the tail-flick response ([1]; Compound 1 at 50 mg/kg (i.v.) with naloxone at 10 mg/kg): 159.8±60 min×s
AUC of inhibition of the tail-flick response ([1]; Compound 1 at 100 mg/kg (i.v.) with naloxone at 10 mg/kg): 384±87 min×s
AUC [2, 3]: + (+: >5000)
EC50 ([2]; EC50, combined with naloxone): < 10 µM
EC50 ([2]; EC50, combined with naloxone (20 nM)): 4 µM
EC50 ([2]; EC50, combined with naloxone, CHO-K1/MOR/Gα15 cells): 3 to 10 µM
effect on Emax and potency of naloxone ([2]; concentration-response curves of naloxone at several concentrations of Compound 1): both Emax and potency of naloxone were altered
calcium release ([2]; in the presence of naloxone): significant calcium release
PAM or NAM effect: Emax and potency of morphine ([2]; morphine with Compound 1 at 30, 10, or 3.3 μM): neither Emax nor potency of morphine was significantly altered

CCc1ccccc1Nc1nc(C)cs1 [Compound 132, N-(2-Ethylphenyl)-4-methyl-1,3-thiazol-2-amine]
AUC [2, 3]: − (−: <5000)
EC50 ([2]; combined with naloxone, CHO-K1/MOR/Gα15 cells, read-out: EC50): > 10 µM

C=CCN1CC[C@]23c4c5ccc(O)c4O[C@H]2C(=O)CC[C@@]3(O)[C@H]1C5 [naloxone, reference compound]
ED50 ([1]; Mus musculus, mice injected with Compound 1 at 100 mg/kg, read-out: ED50 in inhibiting the tail-flick response): 17.5 ± 4 mg/kg

Source: patent US9827228B2, “Opioid receptor modulators and use thereof” (priority 2015, dated 2017)
